# Publication PMC8227400, “Novel N-Arylsulfonylindoles Targeted as Ligands of the 5-HT6 Receptor. Insights on the Influence of C-5 Substitution on Ligand Affinity” (Pharmaceuticals, 2021)
# pKi: −log10 of the molar value.
# Target: 5-HT6 receptor
# Details: cited from earlier work
row,Structure (SMILES),pKi
1,COc1ccc2c(c1)c(CCN(C)C)cn2S(=O)(=O)c1ccccc1 [MS-245],8.64

# System: not given
# Details: not given
row,melting point,Structure (SMILES)
1,112 to 114 °C,"O=S(=O)(c1cccc2ccccc12)n1cc(C(O)CN2CCN(c3ccccn3)CC2)c2cc(F)ccc21 (centres unmarked) [4e, 1-(5-fluoro-1-(naphthalen-1-ylsulfonyl)-1H-indol-3-yl)-2-(4-(pyridin-2-yl)piperazin-1-yl)ethan-1-ol]"
2,120 to 124 °C,"COc1ccc2c(c1)c(C(O)CN1CCOCC1)cn2S(=O)(=O)c1ccc(I)cc1 (centres unmarked) [4k, 1-(1-((4-iodophenyl)sulfonyl)-5-methoxy-1H-indol-3-yl)-2-morpholinoethan-1-ol]"
3,100 to 103 °C,"O=S(=O)(c1cccc2ccccc12)n1cc(C(O)CN2CCN(c3ncccn3)CC2)c2cc(F)ccc21 (centres unmarked) [4g, 1-(5-fluoro-1-(naphthalen-1-ylsulfonyl)-1H-indol-3-yl)-2-(4-(pyrimidin-2-yl)piperazin-1-yl)ethan-1-ol]"
4,164.1 to 165.8 °C,"O=S(=O)(c1cccc2ccccc12)n1cc(C(O)CN2CCOCC2)c2cc(F)ccc21 (centres unmarked) [4f, 1-(5-fluoro-1-(naphthalen-1-ylsulfonyl)-1H-indol-3-yl)-2-morpholinoethan-1-ol]"
5,181.1 to 183.2 °C,"COc1ccccc1N1CCN(CC(O)c2cn(S(=O)(=O)c3cccc4ccccc34)c3ccc(F)cc23)CC1 (centres unmarked) [4d, 1-(5-fluoro-1-(naphthalen-1-ylsulfonyl)-1H-indol-3-yl)-2-(4-(2-methoxyphenyl)piperazin-1-yl)ethan-1-ol]"
6,94.5 to 96.4 °C,"COc1ccccc1N1CCN(CC(O)c2cn(S(=O)(=O)c3ccc(I)cc3)c3ccc(F)cc23)CC1 (centres unmarked) [4a, 1-(5-fluoro-1-((4-iodophenyl)sulfonyl)-1H-indol-3-yl)-2-(4-(2-methoxyphenyl)piperazin-1-yl) ethan-1-ol]"
7,190 to 192 °C,"COc1ccc2c(c1)c(C(O)CN1CCOCC1)cn2S(=O)(=O)c1cccc2ccccc12 (centres unmarked) [4m, 1-(5-methoxy-1-(naphthalen-1-ylsulfonyl)-1H-indol-3-yl)-2-morpholinoethan-1-ol]"
8,135 to 137 °C,"O=S(=O)(c1ccc(I)cc1)n1cc(C(O)CN2CCN(c3ccccn3)CC2)c2cc(F)ccc21 (centres unmarked) [4b, 1-(5-fluoro-1-((4-iodophenyl)sulfonyl)-1H-indol-3-yl)-2-(4-(pyridin-2-yl)piperazin-1-yl)ethan-1-ol]"
9,101 to 104 °C,"COc1ccc2c(c1)c(C(O)CN1CCN(c3ccccc3OC)CC1)cn2S(=O)(=O)c1ccc(I)cc1 (centres unmarked) [4j, 1-(1-((4-iodophenyl)sulfonyl)-5-methoxy-1H-indol-3-yl)-2-(4-(2-methoxyphenyl)piperazin-1-yl)ethan-1-ol]"
10,105 to 107 °C,"COc1ccc2c(c1)c(C(O)CN1CCN(c3ccccc3OC)CC1)cn2S(=O)(=O)c1cccc2ccccc12 (centres unmarked) [4l, 1-(5-methoxy-1-(naphthalen-1-ylsulfonyl)-1H-indol-3-yl)-2-(4-(2-methoxyphenyl)piperazin-1-yl)ethan-1-ol]"
